Consider three molecules from US11040053B2, “Compositions and methods for activating “stimulator of interferon gene”13 dependent signalling” (CHINOOK THERAPEUTICS, INC., priority 2015, dated 2021).

Each structure is given as a SMILES string.

The target in one assay is T1, HAQ allele hSTING (Homo sapiens, UniProt Q86WV6, G230A/H232R/R293Q).
T1 construct: DNA encoding amino acids 140-379 (amino acid numbering corresponding to Swiss Prot Q86WV6); 6xHIS (N, cleaved yes); SUMO (N, cleaved yes); made in house; host or cells: Rosetta2 (DE3) E. coli
As to the kind of experiment: Differential scanning fluorometry (DSF) binding to purified hSTING HAQ allele. The following applies: for hSTING Tm Shift HAQ: DSF, 1 mg/ml STING AA140-379, ligand 1 mM; for binding relative to OH reference compound, in words: Table 4 comment, HAQ allele hSTING. Here is the method: (§1) Cells were grown in lysogeny broth at 37° C. until a […] absorbance of 0.6 was reached. […] Cell pellets were re-suspended on ice in a buffer containing 50 mM Tris hydrochloride (Tris-HCl) pH 7.5, 500 mM sodium chloride (NaCl), 20 mM imidazole, 10% glycerol, 1 mM tris(2-carboxyethyl)phosphine hydrochloride (TCEP) and protease inhibitor tablet (Pierce) (Buffer A). Cells were lysed using an S-450D sonifier (Emmerson industrial) on ice. […] Protein was aliquoted, flash frozen in liquid nitrogen and stored at −80° C. until use.
(§2) The protein is heated in the presence of a dye that binds to and fluoresces in hydrophobic environments. The protein is thermally denatured by heating resulting in increased dye binding to the unfolded protein and fluorescence. The temperature midpoint (Tm) of a proteins denaturation is established by calculating the half maximal value of the denaturation curve. The temperature midpoint of the protein in the presence of a ligand is directly related to the affinity of the ligand for the protein and therefore its ability to stabilize the protein at higher temperatures.
(§3) Samples were placed in hard shell PCR plate (Bio-Rad). The fluorescence as a function of temperature was recorded in a CFX 96 real time PCR machine (Bio-Rad) reading on the HEX channel, excitation 450-490, emission 560-580 nm. The temperature gradient was from 15-80° C. ramping 0.5° C. per 15 seconds and recording every 0.5° C. After subtraction of the background signal from a sample lacking protein and ligand. The midpoint temperature (Tm) was calculated by fitting the curves of the fluorescence as a function of temperature to a Boltzmann sigmoidal function (Graph Pad Prism).

For assay [1], the target named is T2, reference (REF) STING allele (Homo sapiens, UniProt Q86WV6).
T2 construct: endogenous in cells
Kind of assay: Cytokine transcript induction (qRT-PCR) in STING^REF/REF hPBMCs. In kind it is cell-based. The following applies: FIGS. 9B-13B, 2 hours and 6 hours stimulation. As for the experimental part:
The induction of type I interferon was measured in human primary blood mononuclear cells (hPBMCs) to evaluate the potency of mono- or di-F-CDN compounds as described herein. hPBMCs from two unique donors were used: one donor was homozygous for the wild type (WT) STING allele (STING^WT/WT) and the other donor was homozygous for the so-called reference (REF) STING allele (STING^REF/REF). The STING genotype of these donors was determined by PCR amplification and sequencing: genomic DNA was isolated from 10^4 hPBMCs using Quick Extract DNA Extraction Solution (Epicentre) and was used to amplify regions of exon 3, 6, and 7 of the human STING gene.
Cells were incubated at 37° C., 5% CO2 with concentrations ranging from 100 μM to 0.1 μM of each CDN. After 2 hours (FIGS. 7 and 8) or 2 hours and 6 hours (FIGS. 9-13) stimulation, cells were harvested by centrifugation and washed once with phosphate-buffered saline. Cellular RNA was isolated using the Aurum Total RNA 96 Kit and cDNA was synthesized using the iScript cDNA Synthesis Kit. Target and reference gene expression was assessed by real-time qRT-PCR using PrimePCR probe assays and the CFX96 gene cycler (all reagents and equipment from BioRad). Normalized IFNβ expression was expressed relative to untreated cells. Target genes included type I interferon (IFNβ), Th1-associated cytokines (IFNγ, IL-12p40) and NF-kB dependent inflammatory cytokines (TNFα, IL-6). Reference genes included GUSB alone (FIGS. 7 and 8) or GUSB and HSP90AB1 (FIGS. 9-13).
(In qPCR the cycle at which signal appears reflects the starting amount.)

Another assay deals with T3, hSTING HAQ allele (Homo sapiens, UniProt Q86WV6, G230A/H232R/R293Q/R71H).
T3 construct: a human monocyte cell line containing the hSTING HAQ allele; host or cells: THP1-Dual cells
As to the kind of experiment: IRF-3 inducible secreted luciferase reporter in THP1-Dual cells without digitonin. The settings on record: for activity relative to OH reference compound, in words: Table 5 comment, THP1 cells without digitonin; for EC50: without digitonin in THP1 cells (HAQ allele). In kind it is cell-based. As for the experimental part: After 30 minutes, cells were washed and fresh RPMI media containing 10% FBS was added, and cells were incubated at 37° C. with 5% CO2 Cell culture supernatants from each sample were collected after overnight incubation, and 10 μL of the cell culture supernatants was added to 50 μL QUANTI-Luc reagent (Invivogen). Type I interferon activation was determined by measuring secreted luciferase levels on a SpectraMax M3 spectrophotometer (Molecular Devices). The EC50 value was determined from the dose-response curve for the 10 concentrations from the serial dilution of the reference compounds and compounds of the invention tested in this assay as listed in Table 5.
A general note: A reporter such as luciferase makes a cellular process visible.

Assay [2] has as its target T4, human-STING(E149-S379)H232R protein (Homo sapiens, UniProt Q86WV6, H232R).
T4 construct: His6 (C); made in house; host or cells: E. coli
Kind of assay: Surface Plasmon Resonance binding to hSTING WT. The settings on record: Biacore T200, 15° C., steady-state analysis. Here is the method:
Binding of the mono- and di-F CDN compounds was assessed using Surface Plasmon Resononce to determine a binding constant. An E. coli expression construct (human-STING[E149-S379]H232R) was prepared harboring the protein sequence:
Aliquots were prepared and stored at −80° C. in 30 mM Tris pH 7.5/100 mM NaCl/10% glycerol.
N-terminal avi-tagged human-STING(E149-S379)H232R protein was immobilized (2500 RUs) on a streptavidin chip at 15° C. in a Biacore T200 (GE Healthcare). Titrations of cyclic dinucleotides (CDNs as indicated in Table 6) in 30 mM Tris pH 7.5/50 mM NaCL/0.005% Tween 20/1 mM DTT/2% DMSO, were profiled (30 μLs/min, 180 seconds for sample contact/120 seconds for dissociation) against hSTING at 15° C. Kinetic analysis of the data was performed using Biacore T200 Evaluation software. Steady-state analysis of the data was performed using Graphpad Prism 6.0 software, using one site-specific binding algorithm (Equation is Y=Bmax*X/(Kd+X)).
For orientation: Surface plasmon resonance follows binding to a sensor surface in real time, without labels.

For the next assay, the target named is hSTING(WT) (Homo sapiens, UniProt Q86WV6, H232R). As to the kind of experiment: Differential scanning fluorometry (DSF) binding to purified hSTING WT. Also noted: DNA encoding amino acids 140-379 (amino acid numbering corresponding to Swiss Prot Q86WV6); 6xHIS (N, cleaved yes); SUMO (N, cleaved yes); made in house; host or cells: Rosetta2 (DE3) E. coli. The following applies: for hSTING Tm Shift WT: DSF, 1 mg/ml STING AA140-379, ligand 1 mM; for binding relative to OH reference compound, in words: Table 4 comment, wild type hSTING. Here is the method: as §1, §2, §3

The target in the next assay is hSTING(REF) (Homo sapiens, UniProt Q86WV6). Kind of assay: Differential scanning fluorometry (DSF) binding to purified hSTING REF allele. Also noted: DNA encoding amino acids 140-379 (amino acid numbering corresponding to Swiss Prot Q86WV6); 6xHIS (N, cleaved yes); SUMO (N, cleaved yes); made in house; host or cells: Rosetta2 (DE3) E. coli. The following applies: for hSTING Tm Shift REF: DSF, 1 mg/ml STING AA140-379, ligand 1 mM; for binding relative to OH reference compound, in words: Table 4 comment, REF allele hSTING. Here is the method: as §1, §2, §3
Chain of hSTING(REF) (Q86WV6 140-379): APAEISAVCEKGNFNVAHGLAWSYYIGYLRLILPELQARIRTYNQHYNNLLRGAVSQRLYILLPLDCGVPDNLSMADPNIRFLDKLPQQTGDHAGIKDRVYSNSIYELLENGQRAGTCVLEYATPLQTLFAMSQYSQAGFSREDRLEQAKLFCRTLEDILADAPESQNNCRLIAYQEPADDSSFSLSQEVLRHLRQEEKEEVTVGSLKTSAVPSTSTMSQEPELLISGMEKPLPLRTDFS

T2 sequence (Q86WV6 whole entry): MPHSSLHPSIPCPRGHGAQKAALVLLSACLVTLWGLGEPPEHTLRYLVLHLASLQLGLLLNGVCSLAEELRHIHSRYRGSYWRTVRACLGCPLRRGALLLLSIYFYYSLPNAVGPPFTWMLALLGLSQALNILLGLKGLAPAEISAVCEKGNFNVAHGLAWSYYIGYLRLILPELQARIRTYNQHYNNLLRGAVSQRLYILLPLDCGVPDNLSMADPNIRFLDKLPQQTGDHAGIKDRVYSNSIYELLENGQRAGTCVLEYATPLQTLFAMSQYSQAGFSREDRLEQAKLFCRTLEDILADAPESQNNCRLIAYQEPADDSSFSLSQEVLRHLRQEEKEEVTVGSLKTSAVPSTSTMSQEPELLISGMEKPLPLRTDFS
T1 sequence (Q86WV6 140-379 G230A/H232R/R293Q limits assumed): as the sequence (Q86WV6 140-379) above, with G91A, H93R, R154Q counted along it
Chain of hSTING(WT) (Q86WV6 140-379 H232R): as the sequence (Q86WV6 140-379) above, with H93R counted along it
T3 sequence (Q86WV6 whole entry R71H/G230A/H232R/R293Q): as the sequence (Q86WV6 whole entry) above, with R71H, G230A, H232R, R293Q counted along it
T4 sequence (Q86WV6 with tags, fused parts or gaps H232R): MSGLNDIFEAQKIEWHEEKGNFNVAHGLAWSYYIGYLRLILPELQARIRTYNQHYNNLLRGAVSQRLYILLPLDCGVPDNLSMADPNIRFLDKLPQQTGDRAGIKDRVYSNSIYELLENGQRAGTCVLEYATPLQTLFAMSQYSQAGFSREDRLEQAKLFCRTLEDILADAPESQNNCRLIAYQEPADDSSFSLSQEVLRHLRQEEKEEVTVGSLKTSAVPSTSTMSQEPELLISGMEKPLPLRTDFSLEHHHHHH

As for `Nc1nc2c(ncn2[C@@H]2O[C@@H]3CO[P@@](=O)(S)O[C@H]4[C@@H](O)[C@H](n5cnc6c(N)ncnc65)O[C@@H]4CO[P@@](=O)(S)O[C@H]3[C@H]2F)c(=O)[nH]1` [Compound 23, 2-amino-9-((2R,3R,3aR,5R,7aR,9R,10R,10aS,12R,14aR)-9-(6-amino-9H-purin-9-yl)-3-fluoro-10-hydroxy-5,12-dimercapto-5,12-dioxidooctahydro-2H,7H-difuro[3,2-d:3′,2′-j][1,3,7,9]tetraoxa[2,8]diphosphacyclododecin-2-yl)-1,9-dihydro-6H-purin-6-one], on HAQ allele hSTING, the “hSTING Tm Shift HAQ” value amounted to 25.9 °C and the “binding relative to OH reference compound, in words” value is reported as “improved binding”. For the same molecule, the “cytokine responses (IFNβ, TNFα, IL-6, IFNγ, IL-12p40 expression), in words” value (“cytokine responses” for short) in assay [1] was “induced more robust dose-dependent responses of each of the cytokines tested”. Moreover, at hSTING HAQ allele, the “activity relative to OH reference compound, in words” value is given as “improved activity” and a half-maximal effect (EC50) was put at 15 µM. For the same molecule, binding in assay [2] was put at a Kd of 0.311 µM. In addition, at hSTING(WT), the “hSTING Tm Shift WT” value was found to be 14.7 °C and the “binding relative to OH reference compound, in words” value is given as “improved binding”. Also, on hSTING(REF), the “hSTING Tm Shift REF” value was 9.5 °C and the “binding relative to OH reference compound, in words” value is reported as “improved binding”.
Take `Nc1nc2c(ncn2[C@@H]2O[C@@H]3CO[P@@](=O)(S)O[C@H]4[C@@H](F)[C@H](n5cnc6c(N)ncnc65)O[C@@H]4CO[P@@](=O)(S)O[C@H]3[C@H]2O)c(=O)[nH]1` [Compound 24, 2-amino-9-((2R,3R,3aS,5R,7aR,9R,10R,10aR,12R,14aR)-9-(6-amino-9H-purin-9-yl)-10-fluoro-3-hydroxy-5,12-dimercapto-5,12-dioxidooctahydro-2H,7H-difuro[3,2-d:3′,2′-j][1,3,7,9]tetraoxa[2,8]diphosphacyclododecin-2-yl)-1,9-dihydro-6H-purin-6-one]: at HAQ allele hSTING, the “hSTING Tm Shift HAQ” value came to 28.8 °C and the “binding relative to OH reference compound, in words” value is on record as “improved binding”. In addition, the “cytokine responses” value in assay [1] is on record as “induced more robust dose-dependent responses of each of the cytokines tested”. In addition, at hSTING HAQ allele, the “activity relative to OH reference compound, in words” value is recorded as “improved activity” and the midpoint of the response, the EC50, lay at 13 µM. In assay [2], binding was put at a Kd of 0.037 µM. Besides, at hSTING(WT), the “hSTING Tm Shift WT” value amounted to 15.9 °C and the “binding relative to OH reference compound, in words” value was “improved binding”. In addition, on hSTING(REF), the “hSTING Tm Shift REF” value was determined as 9.7 °C and the “binding relative to OH reference compound, in words” value is given as “improved binding”.
In the case of `Nc1ncnc2c1ncn2[C@@H]1O[C@@H]2CO[P@@](=O)(S)O[C@H]3[C@@H](F)[C@H](n4cnc5c(N)ncnc54)O[C@@H]3CO[P@@](=O)(S)O[C@H]2[C@H]1O` [Compound 22, (2R,3R,3aR,5R,7aR,9R,10R,10aS,12R,14aR)-2,9-bis(6-amino-9H-purin-9-yl)-3-fluoro-10-hydroxy-5,12-dimercaptooctahydro-2H,7H-difuro[3,2-d:3′,2′-j][1,3,7,9]tetraoxa[2,8]diphosphacyclododecine 5,12-dioxide], at HAQ allele hSTING, the “hSTING Tm Shift HAQ” value worked out at 16.0 °C. Besides, the “cytokine responses” value in assay [1] is “able to elicit cytokine responses at 6 hours stimulation with 100 μM of compound”. Also, the EC50 (usually the midpoint of the concentration-response curve) on hSTING HAQ allele was determined as 59 µM. Moreover, in assay [2], the Kd (usually the concentration at which binding is half-saturated) was 1.28 µM. Besides, on hSTING(WT), the “hSTING Tm Shift WT” value turned out to be 9.4 °C. In addition, the “hSTING Tm Shift REF” value on hSTING(REF) is 5.4 °C.
